These compounds were tested against Glycylpeptide N-tetradecanoyltransferase 1 (Homo sapiens) (UniProt P30419) (assay: Inhibition of recombinant N-terminal his-6 tagged human NMT expressed in Escherichia coli BL21 (DE3)pLysS using peptide substrate preincubated for 5 mins followed by substrate addition and measured after 30 mins by scintillation proximity assay).
Glycylpeptide N-tetradecanoyltransferase 1 (Homo sapiens), sequence (P30419 whole entry, looked up): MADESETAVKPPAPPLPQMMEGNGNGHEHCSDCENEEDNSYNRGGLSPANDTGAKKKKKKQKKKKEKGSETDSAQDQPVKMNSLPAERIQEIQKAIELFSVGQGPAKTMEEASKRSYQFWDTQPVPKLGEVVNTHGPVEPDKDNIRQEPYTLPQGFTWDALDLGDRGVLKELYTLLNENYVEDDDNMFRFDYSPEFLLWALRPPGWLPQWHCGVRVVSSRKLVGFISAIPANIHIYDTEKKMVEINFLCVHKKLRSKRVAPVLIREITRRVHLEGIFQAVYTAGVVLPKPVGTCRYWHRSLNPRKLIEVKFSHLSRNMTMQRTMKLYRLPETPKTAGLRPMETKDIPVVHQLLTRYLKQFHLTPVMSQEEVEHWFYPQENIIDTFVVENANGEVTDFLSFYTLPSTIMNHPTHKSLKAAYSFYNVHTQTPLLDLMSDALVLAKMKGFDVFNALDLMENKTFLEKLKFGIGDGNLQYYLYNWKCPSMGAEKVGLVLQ

In order of rising IC50:
1. O=C(Nc1nc2ccccc2s1)[C@H]1CC[C@@H](NCc2ccc3ccccc3c2)CC1  286 µM
2. O=C(Nc1nc2cc(F)ccc2s1)[C@H]1CC[C@@H](NCc2ccc3ccccc3c2)CC1  656 µM
3. CN(C)C(=O)c1ccc2nc(NC(=O)[C@@H]3CCC[C@H](NCc4ccc5ccoc5c4)C3)sc2c1  656 µM
